According to ChEMBL document CHEMBL1149582, “Synthesis of penaresidin derivatives and its biological activity” (Bioorg Med Chem, 2007):
≈ marks a conversion by molar mass, not a printed value.

How the values were obtained:
[1] = test system: L1210; assay: Cytotoxicity against mouse L1210 cells; type: functional, cell-based
[2] = test system: A549; assay: Cytotoxicity against human A549 cells; type: functional, cell-based
[3] = test system: KB; assay: Cytotoxicity against human KB cells; type: functional, cell-based
[4] = Cytotoxicity against human […] cells; type: functional, cell-based
[5] = test system: Escherichia coli; assay: Antibacterial activity against Escherichia coli ATCC 25922; type: functional
[6] = test system: Micrococcus luteus; assay: Antibacterial activity against Micrococcus luteus IFM 2066; type: functional
[7] = test system: Candida albicans; assay: Antibacterial activity against Candida albicans ATCC 90028; type: functional
[8] = test system: Staphylococcus aureus; assay: Antibacterial activity against Staphylococcus aureus 209P; type: functional
[9] = test system: Bacillus subtilis; assay: Antibacterial activity against Bacillus subtilis […]; type: functional
[10] = test system: Aspergillus niger; assay: Antibacterial activity against Aspergillus niger IFM 5368; type: functional
[11] = test system: Cryptococcus neoformans; assay: Antibacterial activity against Cryptococcus neoformans IFM 46914; type: functional

Structure (SMILES)	MIC [5] [µg/mL]	MIC [6] [µg/mL]	MIC [7] [µg/mL]	MIC [8] [µg/mL]	MIC [9] [µg/mL]	MIC [10] [µg/mL]	MIC [11] [µg/mL]	IC50 [1] [µg/mL]	IC50 [2] [µg/mL]	IC50 [3] [µg/mL]	IC50 [4] [µg/mL]
CCCCCCCCCCCCCC[C@H]1N[C@@H](CO)[C@H]1O	–	–	–	–	–	–	–	> 10	1.38 (≈ 4.61 µM)	> 10	1.65 (≈ 5.51 µM)
CCCCCCCCCCCCCC[C@@H]1N[C@H](CO)[C@@H]1O	> 16.7	> 16.7	> 16.7	> 16.7	> 16.7	> 16.7	> 16.7	7.5 (≈ 25 µM)	> 2	> 10	> 2
CCCCCCCCCCCCCC[C@@H]1N[C@@H](CO)[C@@H]1O	> 16.7	1.84 (≈ 6.14 µM)	> 16.7	8.35 (≈ 27.9 µM)	4.18 (≈ 14 µM)	> 16.7	> 16.7	4.5 (≈ 15 µM)	0.34 (≈ 1.14 µM)	3.4 (≈ 11.4 µM)	0.56 (≈ 1.87 µM)

More lines, main results first:

MIC [5] [µg/mL]	MIC [6] [µg/mL]	MIC [7] [µg/mL]	MIC [8] [µg/mL]	MIC [9] [µg/mL]	MIC [10] [µg/mL]	MIC [11] [µg/mL]	Structure (SMILES)	IC50 [1] [µg/mL]	IC50 [2] [µg/mL]	IC50 [3] [µg/mL]	IC50 [4] [µg/mL]
> 16.7	4.18 (≈ 14 µM)	> 16.7	16.7 (≈ 55.8 µM)	8.35 (≈ 27.9 µM)	> 16.7	> 16.7	CCCCCCCCCCCCCC[C@H]1N[C@H](CO)[C@H]1O	4.5 (≈ 15 µM)	> 2	6 (≈ 20 µM)	1.23 (≈ 4.11 µM)
> 16.7	> 16.7	> 16.7	> 16.7	> 16.7	> 16.7	> 16.7	CC(C)CC[C@H](O)CCCCCCCCC[C@@H]1N[C@@H](CO)[C@@H]1O	2.9 (≈ 8.8 µM)	> 2	> 10	> 2
> 16.7	8.35 (≈ 27.9 µM)	> 16.7	> 16.7	16.7 (≈ 55.8 µM)	> 16.7	> 16.7	CCCCCCCCCCCCCC[C@@H]1N[C@H](CO)[C@H]1O	4.5 (≈ 15 µM)	1.97 (≈ 6.58 µM)	> 10	0.79 (≈ 2.64 µM)
8.35 (≈ 27.9 µM)	4.18 (≈ 14 µM)	> 16.7	8.35 (≈ 27.9 µM)	4.18 (≈ 14 µM)	> 16.7	> 16.7	CCCCCCCCCCCCCC[C@H]1N[C@@H](CO)[C@@H]1O	1.6 (≈ 5.34 µM)	0.22 (≈ 0.735 µM)	3.2 (≈ 10.7 µM)	0.17 (≈ 0.568 µM)
